According to publication PMC5218480 (PLoS ONE, 2017):

Test system: MV-4-11 cells
Assay: Gene expression microarray analysis (Affymetrix PrimeView) and GSEA
Format: cell-based, human
Design: RFU PODN (11730768_x_at) / Fold change /veh PODN (11730768_x_at) / RFU LINC00158 (11744669_a_at) / Fold change /veh LINC00158 (11744669_a_at) / RFU DUSP10 (11751237_a_at) / Fold change /veh DUSP10 (11751237_a_at) / RFU ID3 (11757404_x_at) / Fold change /veh ID3 (11757404_x_at) / RFU PLEKHG5 (11737974_s_at) / Fold change /veh PLEKHG5 (11737974_s_at) / RFU LRRC4B (11730491_at) / Fold change /veh LRRC4B (11730491_at) / RFU GIMAP4 (11747438_a_at) / Fold change /veh GIMAP4 (11747438_a_at) / RFU KRT8 (11758183_x_at) / Fold change /veh KRT8 (11758183_x_at) / RFU CNN1 (11734310_a_at) / Fold change /veh CNN1 (11734310_a_at) / RFU VPS37D (11726825_at) / Fold change /veh VPS37D (11726825_at) / RFU C10orf10 (11716522_x_at) / Fold change /veh C10orf10 (11716522_x_at) / RFU KIR2DL2 /// KIR2DL4 /// KIR2DL5A /// KIR2DL5B /// KIR2DS1 /// KIR2DS2 /// KIR2DS3 /// KIR2DS4 /// KIR3DL3 /// KIR3DL3 /// KIR3DS1 (11738374_at) / Fold change /veh KIR2DL2 /// KIR2DL4 /// KIR2DL5A /// KIR2DL5B /// KIR2DS1 /// KIR2DS2 /// KIR2DS3 /// KIR2DS4 /// KIR3DL3 /// KIR3DL3 /// KIR3DS1 (11738374_at) / RFU C1QL1 (11718748_at) / Fold change /veh C1QL1 (11718748_at) / RFU TMPRSS4 (11747572_a_at) / Fold change /veh TMPRSS4 (11747572_a_at) / RFU HAMP (11756126_x_at) / Fold change /veh HAMP (11756126_x_at) / RFU RNFT2 (11725882_a_at) / Fold change /veh RNFT2 (11725882_a_at) / RFU NR4A2 (11747474_a_at) / Fold change /veh NR4A2 (11747474_a_at) / RFU ABCC12 (11746883_a_at) / Fold change /veh ABCC12 (11746883_a_at) / RFU TMEM136 (11760407_x_at) / Fold change /veh TMEM136 (11760407_x_at) / RFU CLDN22 /// WWC2 (11732394_at) / Fold change /veh CLDN22 /// WWC2 (11732394_at) / RFU HLA-DPB1 (11760878_x_at) / Fold change /veh HLA-DPB1 (11760878_x_at) / RFU SPINT1 (11716480_a_at) / Fold change /veh SPINT1 (11716480_a_at) / RFU GAP43 (11754022_s_at) / Fold change /veh GAP43 (11754022_s_at) / RFU A4GNT (11735810_at) / Fold change /veh A4GNT (11735810_at) / RFU PRB3 (11715151_x_at) / Fold change /veh PRB3 (11715151_x_at) / RFU TUBB4B (11761932_at) / Fold change /veh TUBB4B (11761932_at) / RFU CAPN14 (11732068_a_at) / Fold change /veh CAPN14 (11732068_a_at) / RFU TMCC2 (11721928_a_at) / Fold change /veh TMCC2 (11721928_a_at) / RFU IRGQ (11745062_a_at) / Fold change /veh IRGQ (11745062_a_at) / RFU FAM174B (11720279_a_at) / Fold change /veh FAM174B (11720279_a_at) / RFU TMPRSS4 (11748680_a_at) / Fold change /veh TMPRSS4 (11748680_a_at) / RFU FAM212B (11763350_a_at) / Fold change /veh FAM212B (11763350_a_at) / RFU PLEKHG5 (11743358_a_at) / Fold change /veh PLEKHG5 (11743358_a_at) / RFU ZSCAN30 (11745921_a_at) / Fold change /veh ZSCAN30 (11745921_a_at) / RFU CMKLR1 (11741424_a_at) / Fold change /veh CMKLR1 (11741424_a_at) / RFU LOC101060620 /// MAPK8IP1 (11723275_at) / Fold change /veh LOC101060620 /// MAPK8IP1 (11723275_at) / RFU SPTSSB (11747773_x_at) / Fold change /veh SPTSSB (11747773_x_at) / RFU PRSS12 (11739890_at) / Fold change /veh PRSS12 (11739890_at) / RFU BIN1 (11741810_x_at) / Fold change /veh BIN1 (11741810_x_at) / RFU WNT11 (11732464_a_at) / Fold change /veh WNT11 (11732464_a_at) / RFU C10orf10 (11716521_a_at) / Fold change /veh C10orf10 (11716521_a_at) / RFU C5orf56 (11738089_at) / Fold change /veh C5orf56 (11738089_at) / RFU CYB561 (11721691_x_at) / Fold change /veh CYB561 (11721691_x_at) / RFU ANKRD19P (11752326_a_at) / Fold change /veh ANKRD19P (11752326_a_at) / RFU OR2T12 /// OR2T33 /// OR2T8 (11738714_s_at) / Fold change /veh OR2T12 /// OR2T33 /// OR2T8 (11738714_s_at) / RFU VCAN (11748164_a_at) / Fold change /veh VCAN (11748164_a_at) / RFU JSRP1 (11732532_at) / Fold change /veh JSRP1 (11732532_at) / RFU KRTAP10-11 (11738290_x_at) / Fold change /veh KRTAP10-11 (11738290_x_at) / RFU MYO3A (11730013_a_at) / Fold change /veh MYO3A (11730013_a_at) / RFU EBF3 (11725865_a_at) / Fold change /veh EBF3 (11725865_a_at) / RFU CAMK2N1 (11719241_x_at) / Fold change /veh CAMK2N1 (11719241_x_at) / RFU C5orf56 (11738088_a_at) / Fold change /veh C5orf56 (11738088_a_at) / RFU OLFML3 (11715873_a_at) / Fold change /veh OLFML3 (11715873_a_at) / RFU LOC100653217 /// NTM (11731650_a_at) / Fold change /veh LOC100653217 /// NTM (11731650_a_at) / RFU MAPK11 (11762145_a_at) / Fold change /veh MAPK11 (11762145_a_at) / RFU FIZ1 (11724087_x_at) / Fold change /veh FIZ1 (11724087_x_at) / RFU OASL (11726364_x_at) / Fold change /veh OASL (11726364_x_at) / RFU SOX15 (11748057_x_at) / Fold change /veh SOX15 (11748057_x_at) / RFU CD79A (11719716_a_at) / Fold change /veh CD79A (11719716_a_at) / RFU HIST1H1D (11736915_at) / Fold change /veh HIST1H1D (11736915_at) / RFU CASKIN2 (11723855_a_at) / Fold change /veh CASKIN2 (11723855_a_at) / RFU LOC730098 (11760151_x_at) / Fold change /veh LOC730098 (11760151_x_at) / RFU OR4N2 (11742367_at) / Fold change /veh OR4N2 (11742367_at) / RFU PRRT2 (11749266_a_at) / Fold change /veh PRRT2 (11749266_a_at) / RFU SNX32 (11753110_a_at) / Fold change /veh SNX32 (11753110_a_at) / RFU CDHR5 (11726645_a_at) / Fold change /veh CDHR5 (11726645_a_at) / RFU RCAN1 (11760418_a_at) / Fold change /veh RCAN1 (11760418_a_at) / RFU FAM167A (11723789_a_at) / Fold change /veh FAM167A (11723789_a_at) / RFU FAM26E (11764081_at) / Fold change /veh FAM26E (11764081_at) / RFU ISYNA1 (11749810_s_at) / Fold change /veh ISYNA1 (11749810_s_at) / RFU ACY1 (11761880_at) / Fold change /veh ACY1 (11761880_at) / RFU 11764098_at / Fold change /veh 11764098_at / RFU SAMD14 (11745864_x_at) / Fold change /veh SAMD14 (11745864_x_at) / RFU NPB (11741838_a_at) / Fold change /veh NPB (11741838_a_at) / RFU TMPRSS6 (11731388_a_at) / Fold change /veh TMPRSS6 (11731388_a_at) / RFU KRTAP10-2 (11738614_at) / Fold change /veh KRTAP10-2 (11738614_at) / RFU ARHGAP8 /// PRR5-ARHGAP8 (11727945_x_at) / Fold change /veh ARHGAP8 /// PRR5-ARHGAP8 (11727945_x_at) / RFU KRTAP5-7 /// NADSYN1 (11734609_at) / Fold change /veh KRTAP5-7 /// NADSYN1 (11734609_at) / RFU RASL12 (11751679_a_at) / Fold change /veh RASL12 (11751679_a_at) / RFU CDKN2B (11736163_a_at) / Fold change /veh CDKN2B (11736163_a_at) / RFU PRF1 (11729649_at) / Fold change /veh PRF1 (11729649_at) / RFU, ZNF638 /// ZNF638-IT1 / Fold change vs veh, ZNF638 /// ZNF638-IT1 / RFU, PANK3 / Fold change vs veh, PANK3 / RFU, SH3YL1 / Fold change vs veh, SH3YL1 / RFU, ZEB2 / Fold change vs veh, ZEB2 / RFU, NRIP1 / Fold change vs veh, NRIP1 / RFU, PTTG1IP / Fold change vs veh, PTTG1IP / RFU, CAPN2 / Fold change vs veh, CAPN2 / RFU, MED14 / Fold change vs veh, MED14 / RFU, SNORA58 / Fold change vs veh, SNORA58 / RFU, C1orf63 / Fold change vs veh, C1orf63 / RFU, LRRFIP1 / Fold change vs veh, LRRFIP1 / RFU, NDUFAF7 / Fold change vs veh, NDUFAF7 / RFU, SLC12A2 / Fold change vs veh, SLC12A2 / RFU, IBTK / Fold change vs veh, IBTK / RFU, ESF1 / Fold change vs veh, ESF1 / Fold change vs veh, TMEM50B / RFU, TAOK1 / Fold change vs veh, TAOK1 / RFU, ACBD3 / Fold change vs veh, ACBD3 / RFU, TMA16 / Fold change vs veh, TMA16 / RFU, RWDD3 / Fold change vs veh, RWDD3 / RFU, BCAT1 / Fold change vs veh, BCAT1 / RFU, EDEM3 / Fold change vs veh, EDEM3 / RFU, TMEM33 / Fold change vs veh, TMEM33 / RFU, WDR75 / Fold change vs veh, WDR75 / RFU, AHCTF1 / Fold change vs veh, AHCTF1 / RFU, TFRC / Fold change vs veh, TFRC / RFU, ZDHHC17 / Fold change vs veh, ZDHHC17 / RFU, NOM1 / Fold change vs veh, NOM1 / RFU, ARL8B / Fold change vs veh, ARL8B / RFU, ZBTB11 / Fold change vs veh, ZBTB11 / RFU, TAMM41 / Fold change vs veh, TAMM41 / RFU, KIAA1704 /// LOC100996395 / Fold change vs veh, KIAA1704 /// LOC100996395 / RFU, ING1 / Fold change vs veh, ING1 / RFU, TRMT61B / Fold change vs veh, TRMT61B / RFU, FUBP3 / Fold change vs veh, FUBP3 / RFU, TP53 / Fold change vs veh, TP53 / RFU, TNKS2 / Fold change vs veh, TNKS2 / RFU, ZFP14 / Fold change vs veh, ZFP14 / RFU, ACTR2 / Fold change vs veh, ACTR2 / RFU, PPP3R1 / Fold change vs veh, PPP3R1 / RFU, PIK3R1 / Fold change vs veh, PIK3R1 / RFU, HNRNPA1 / Fold change vs veh, HNRNPA1 / RFU, RNF170 / Fold change vs veh, RNF170 / RFU, ZNF28 / Fold change vs veh, ZNF28 / RFU, RNGTT / Fold change vs veh, RNGTT / RFU, OGT / Fold change vs veh, OGT / RFU, BRD1 / Fold change vs veh, BRD1 / RFU, MARS / Fold change vs veh, MARS / RFU, ZNF655 / Fold change vs veh, ZNF655 / RFU, FAHD1 / Fold change vs veh, FAHD1 / RFU, BDP1 / Fold change vs veh, BDP1 / RFU, LRRCC1 / Fold change vs veh, LRRCC1 / RFU, ARID1A / Fold change vs veh, ARID1A / RFU, ZNF146 / Fold change vs veh, ZNF146 / RFU, ZNF330 / Fold change vs veh, ZNF330 / RFU, GPN3 / Fold change vs veh, GPN3 / RFU, C9orf123 / Fold change vs veh, C9orf123 / RFU, N4BP2L2 / Fold change vs veh, N4BP2L2 / RFU, ARFIP1 / Fold change vs veh, ARFIP1 / RFU, FAM179B / Fold change vs veh, FAM179B / RFU, BCL10 / Fold change vs veh, BCL10 / RFU, UHRF1BP1L / Fold change vs veh, UHRF1BP1L / RFU, BET1 / Fold change vs veh, BET1 / RFU, CNOT2 / Fold change vs veh, CNOT2 / RFU, ZNF268 / Fold change vs veh, ZNF268 / Fold change vs veh, ZNF507 / RFU, DGCR2 / Fold change vs veh, DGCR2 / RFU, WDSUB1 / Fold change vs veh, WDSUB1 / Fold change vs veh, HSP90B1 /// MIR3652 / RFU, ADSS / Fold change vs veh, ADSS / RFU, GK / Fold change vs veh, GK / RFU, ZNF148 / Fold change vs veh, ZNF148 / RFU, TAF9 / Fold change vs veh, TAF9 / RFU, SLC1A5 / Fold change vs veh, SLC1A5 / RFU, SLMO2 / Fold change vs veh, SLMO2 / RFU, ABCC4 / Fold change vs veh, ABCC4 / RFU, LOC101060439 /// RAP1B / Fold change vs veh, LOC101060439 /// RAP1B / RFU, RFX7 / Fold change vs veh, RFX7 / RFU, GTPBP10 / Fold change vs veh, GTPBP10 / RFU, CNEP1R1 / Fold change vs veh, CNEP1R1 / RFU, BIVM-ERCC5 /// ERCC5 / Fold change vs veh, BIVM-ERCC5 /// ERCC5 / RFU, ILF3 / Fold change vs veh, ILF3 / RFU 11762660_at / Fold change /veh 11762660_at / RFU VCAN (11757783_s_at) / Fold change /veh VCAN (11757783_s_at) / RFU DDX43 (11728927_at) / Fold change /veh DDX43 (11728927_at) / RFU KRT8 (11758188_x_at) / Fold change /veh KRT8 (11758188_x_at) / RFU NKD1 (11759106_at) / Fold change /veh NKD1 (11759106_at) / RFU SRD5A1 (11742802_a_at) / Fold change /veh SRD5A1 (11742802_a_at) / RFU TPSAB1 /// TPSB2 (11721975_s_at) / Fold change /veh TPSAB1 /// TPSB2 (11721975_s_at) / RFU GSTM3 (11746129_a_at) / Fold change /veh GSTM3 (11746129_a_at) / RFU IL23R (11737362_x_at) / Fold change /veh IL23R (11737362_x_at) / RFU TMEM51 (11727254_a_at) / Fold change /veh TMEM51 (11727254_a_at) / RFU PIWIL2 (11732686_x_at) / Fold change /veh PIWIL2 (11732686_x_at) / RFU ORM1 (11744905_x_at) / Fold change /veh ORM1 (11744905_x_at) / RFU CCDC152 (11743942_at) / Fold change /veh CCDC152 (11743942_at) / RFU ECM1 (11717891_a_at) / Fold change /veh ECM1 (11717891_a_at) / RFU IL23R (11748794_a_at) / Fold change /veh IL23R (11748794_a_at) / RFU TNFAIP8L3 (11732012_x_at) / Fold change /veh TNFAIP8L3 (11732012_x_at) / RFU MBOAT4 (11741988_at) / Fold change /veh MBOAT4 (11741988_at) / RFU 11764193_at / Fold change /veh 11764193_at / RFU TMEM53 (11763286_at) / Fold change /veh TMEM53 (11763286_at) / RFU MAGEB2 (11727129_at) / Fold change /veh MAGEB2 (11727129_at) / RFU TMEM200A (11744735_a_at) / Fold change /veh TMEM200A (11744735_a_at) / RFU CCDC152 (11751479_a_at) / Fold change /veh CCDC152 (11751479_a_at) / RFU FAM211A (11726209_a_at) / Fold change /veh FAM211A (11726209_a_at) / RFU RGS16 (11746705_a_at) / Fold change /veh RGS16 (11746705_a_at) / RFU VCAN (11755009_s_at) / Fold change /veh VCAN (11755009_s_at) / RFU RHOB (11743442_s_at) / Fold change /veh RHOB (11743442_s_at) / RFU RGS16 (11720943_a_at) / Fold change /veh RGS16 (11720943_a_at) / RFU RGS16 (11720944_at) / Fold change /veh RGS16 (11720944_at) / RFU, VPS4B / Fold change vs veh, VPS4B / RFU, CREB1 / Fold change vs veh, CREB1 / RFU, DNAJC13 / Fold change vs veh, DNAJC13 / RFU, GNAQ / Fold change vs veh, GNAQ / RFU, CDK5R1 / Fold change vs veh, CDK5R1 / RFU, ZRANB3 / Fold change vs veh, ZRANB3 / RFU, CUL4A / Fold change vs veh, CUL4A / RFU, CCNY / Fold change vs veh, CCNY / RFU, UFL1 / Fold change vs veh, UFL1 / RFU, COG3 / Fold change vs veh, COG3 / RFU, DIAPH2 / Fold change vs veh, DIAPH2 / RFU, SKA2 / Fold change vs veh, SKA2 / RFU, AFF3 / Fold change vs veh, AFF3 / RFU, LMF1 / Fold change vs veh, LMF1 / RFU, IPO11 / Fold change vs veh, IPO11 / RFU, DFFB / Fold change vs veh, DFFB / RFU, FOXP1 / Fold change vs veh, FOXP1 / RFU, CARD8 / Fold change vs veh, CARD8 / RFU, STRN3 / Fold change vs veh, STRN3 / RFU, ADK / Fold change vs veh, ADK / RFU, RASSF2 / Fold change vs veh, RASSF2 / RFU, WIPF1 / Fold change vs veh, WIPF1 / RFU, LARP1B / Fold change vs veh, LARP1B / RFU, RASA1 / Fold change vs veh, RASA1 / RFU, RB1 / Fold change vs veh, RB1 / RFU, PPFIA1 / Fold change vs veh, PPFIA1 / RFU, MAT2A / Fold change vs veh, MAT2A / RFU, CCT5 / Fold change vs veh, CCT5 / RFU, WDR92 / Fold change vs veh, WDR92 / RFU, CUX1 / Fold change vs veh, CUX1 / RFU, TTC7A / Fold change vs veh, TTC7A / RFU, TMEM135 / Fold change vs veh, TMEM135 / RFU, DEPTOR / Fold change vs veh, DEPTOR / RFU, CPM / Fold change vs veh, CPM / RFU, DNAJB6 / Fold change vs veh, DNAJB6 / RFU, CACNA2D3 / Fold change vs veh, CACNA2D3 / RFU, DTX4 / Fold change vs veh, DTX4 / RFU, TFCP2 / Fold change vs veh, TFCP2 / RFU, GMCL1 /// GMCL1P1 / Fold change vs veh, GMCL1 /// GMCL1P1 / RFU, AEBP2 / Fold change vs veh, AEBP2 / RFU, SNHG1 /// SNORD22 /// SNORD25 /// SNORD26 /// SNORD27 /// SNORD28 /// SNORD29 /// SNORD31 / Fold change vs veh, SNHG1 /// SNORD22 /// SNORD25 /// SNORD26 /// SNORD27 /// SNORD28 /// SNORD29 /// SNORD31 / Fold change (Aza/veh), C12orf56 (ProbeSet 11735607_a_at) / Fold change (ACY-1035/veh), C12orf56 (ProbeSet 11735607_a_at) / Fold change (Aza/veh), FGFR1OP (ProbeSet 11751329_s_at) / Fold change (ACY-1035/veh), FGFR1OP (ProbeSet 11751329_s_at) / Fold change (Aza/veh), VPS36 (ProbeSet 11739960_a_at) / Fold change (ACY-1035/veh), VPS36 (ProbeSet 11739960_a_at) / RFU SYPL1 (11715823_x_at) / Fold change /veh SYPL1 (11715823_x_at) / RFU IGFBP7 (11715501_s_at) / Fold change /veh IGFBP7 (11715501_s_at) / RFU REEP3 (11722064_at) / Fold change /veh REEP3 (11722064_at) / RFU IGLL1 (11728026_x_at) / Fold change /veh IGLL1 (11728026_x_at): dose or concentration left out as unconfirmed
Conditions: gene VPS36; ACY-1035 vs DMSO; LIST F

**Q.** `Nc1ccc(-c2cccs2)cc1NC(=O)c1ccc2c(c1)cc(C1CC1)n2CCN1CCOCC1` [ACY-1035] was tested. Which “Fold change (ACY-1035/veh), VPS36 (ProbeSet 11739960_a_at)” value did it give?
**A.** 0.53
